Non-standard residues stand in square brackets, D forms with d. Residues, ends and D or L forms follow the SMILES beside them. No end group written: not given here.
Legend:
S. mitis ComD-2 receptor [1] = experiment: luminescence reporter activation assay (comX expression); assay type: cell-based, Streptococcus mitis; settings: for EC50: S. mitis luciferase reporter strain ATCC49456 PcomX luc::Spc, 30 min at 37 °C, triplicate on three separate days
Description: The ability of synthetic S. mitis-CSP-2 analogs to activate the expression of S. mitis comX was determined using the constructed S. mitis luciferase reporter strain. First, bacteria from the S. mitis luciferase reporter strain freezer stock were streaked onto a Todd-Hewitt broth supplemented with 0.5% yeast extract (THY) agar plate containing 5% horse serum and spectinomycin at a final concentration of 200 μg/ml. The plate was incubated overnight in a CO2 incubator (37 °C with 5% CO2). Fresh colonies were transferred to Tryptic soy broth supplemented with spectinomycin at a final concentration of 200 μg/ml, and the culture was incubated at 37 °C in a 5% CO2-supplemented atmosphere and grown overnight (16 h) until the culture reached an absorbance at 600 nm (optical density at 600 nm [A600]) of 0.45. Overnight cultures of the S. mitis reporter strain at A600 0.45 were diluted 1:10 in Tryptic soy broth and the liquid cultures were incubated in a CO2 incubator for 30 to 45 min, until the bacteria reached early exponential stage (A600 ∼ 0.2) as determined by using a plate reader. During incubation, clear-bottom white 96-well microtiter plates were prepared for the activation assays. An initial activation screening was performed at a high peptide concentration (10,000 nM) for all the S. mitis-CSP-2 analogs (Figs. S1–S7). For each experimental sample, a total of 2 μl of a 1 mM CSP stock solution in dimethyl sulfoxide (DMSO) was added in triplicate to the clear-bottom white 96-well microtiter plate. A total of 2 μl of DMSO was added in triplicate and served as the negative control, and 2 μl of a 1 mM stock of native S. mitis-CSP-2 was added in triplicate as a positive control. In the dark, 2 μl of a 15 mg/ml D-luciferin stock in distilled water was added to each well. Following the addition of synthetic CSPs and D-luciferin, 196 μl of the diluted bacterial culture was added to each well, and the plate was incubated for 30 min at 37 °C. Following incubation, the A600 and luminescence of each experimental well were measured. Results were reported as percent activation, which is the ratio between the luminescence (presented as relative luminescence units, RLU/A600) of the analog and that of the positive control. […] EC50 values, the concentration of the peptide to achieve a half maximal response, for each activator were calculated using GraphPad Prism (https://www.graphpad.com/). Experiments were performed in triplicate on three separate days.
Primary reporter gene assay data
Agonism assays were performed at a 10 µM concentration of synthetic CSP. S. mitis-CSP-2 was used as the positive control (100%) while DMSO as the negative control (0%). For all figures, comX expression is presented as relative luminescence units (RLU) divided by measured cultural optical density (OD). Percent (%) ComD activation was measured by normalizing the RLU/OD value obtained for each peptide to that of the native S. mitis-CSP-2. The results are averages from three replicates and representative of three independent experiments. Error bars represent the standard error of the mean of nine values.
Figure S-1. Primary agonism screening assay data for the S. mitis-CSP-2 alanine scan analogs. Peptides […]
(1 picture or pasted object on this page, not shown here)

S. mitis ComD-2 receptor [2] = experiment: luminescence reporter competitive inhibition assay (comX expression); assay type: cell-based, Streptococcus mitis; settings: for IC50: same reporter strain, competition against 1 μM native S. mitis-CSP-2, 30 min at 37 °C, triplicate on three separate days
Description: As a positive control, 2 μl of S. mitis-CSP-2 and 2 μl of DMSO were added to the same well in triplicate. As a negative control, 4 μl of DMSO was added in triplicate. Then, 2 μl of 15 mg/ml D-luciferin in distilled water was added to each experimental or control well, after which 194 μl of bacteria was added, and the plate was incubated for 30 min at 37 °C. Following incubation, the A600 and luminescence of each experimental well were measured. Results were reported as percent activation, which is the ratio between the luminescence (presented as relative luminescence units, RLU/A600) of the analog and that of the positive control. […] GraphPad Prism was used to calculate the IC50 values, which are the concentration of inhibitor where the response (or binding) is reduced by half. Experiments were performed in triplicate on three separate days.
Antagonism assays were performed at 10 μM concentration of peptides against 1 µM concentration of S. mitis-CSP-2. S. mitis-CSP-2 (1 µM) was used as the positive control (100%) while DMSO as the negative control (0%). For all figures, comX expression is presented as relative luminescence units (RLU) divided by measured cultural optical density (OD). Percent (%) ComD activation was measured by normalizing the RLU/OD value obtained for each peptide to that of the native S. mitis-CSP-2. The results are averages from three replicates and representative of three independent experiments. Error bars represent the standard error of the mean of nine values.
Figure S-8. Primary antagonism screening assay data for t he S. mitis-CSP-2 alanine scan and D-amino acid […]
determine its IC50 value.
Figure S-9. Primary antagonism screening assay data for t he S. mitis-CSP-2 truncated analogs . S. mitis- […]

[3] = target: pneumococcus ComD1 receptor; settings: read-out: EC50, S. pneumoniae ComD1; cited from earlier work
Source text: (§1) Table 5 EC50 or IC50 values of select Streptococcus mitis-CSP-2–based pneumococcal QS modulators against the pneumococcus ComD1 and ComD2 and the S. mitis ComD-2 receptors ^a | column: Streptococcus pneumoniae ^b / ComD1 / EC50 or IC50∗ (nM) || In our previous work, we utilized the S. mitis-CSP-2 scaffold to develop analogs capable of modulating the two pneumococcal ComD receptors at low nanomolar concentrations ([2]). We wanted to evaluate whether the optimization of the S. mitis-CSP-2 scaffold to the pneumococcus ComD receptors affected the ability of the modified analogs to interact with the S. mitis ComD-2 receptor.

[4] = target: pneumococcus ComD2 receptor; settings: read-out: EC50, S. pneumoniae ComD2; cited from earlier work
Source text: as §1, with “/ ComD2” for “/ ComD1”

Molecule | EC50 (S. mitis ComD-2 receptor [1]) | EC50 [3] | EC50 [4] | other results
CC[C@H](C)[C@H](NC(=O)[C@H](CC(N)=O)NC(=O)[C@H](Cc1c[nH]cn1)NC(=O)[C@H](NC(=O)[C@H](CCC(N)=O)NC(=O)[C@H](CCCNC(=N)N)NC(=O)[C@@H](NC(=O)[C@@H](N)CCC(=O)O)[C@@H](C)CC)[C@H](C)O)C(=O)N[C@@H](Cc1ccccc1)C(=O)N[C@@H](Cc1ccccc1)C(=O)N[C@@H](CC(N)=O)C(=O)N[C@@H](Cc1ccccc1)C(=O)N[C@@H](Cc1ccccc1)C(=O)N[C@@H](CCCCN)C(=O)N[C@@H](CCCNC(=N)N)C(=O)N[C@@H](CCCNC(=N)N)C(=O)O [S. mitis-CSP-2-t5] (H-EIRQ[dT]HNIFFNFFKRR-OH; N-terminus and C-terminus assumed) | > 1000 nM | – | – | –
CC[C@H](C)[C@H](NC(=O)[C@H](C)N)C(=O)N[C@@H](CCCNC(=N)N)C(=O)N[C@@H](CCC(N)=O)C(=O)N[C@H](C(=O)N[C@@H](Cc1c[nH]cn1)C(=O)N[C@@H](CC(N)=O)C(=O)N[C@H](C(=O)N[C@@H](Cc1ccccc1)C(=O)N[C@H](Cc1ccccc1)C(=O)N[C@H](CC(N)=O)C(=O)N[C@@H](Cc1ccccc1)C(=O)N[C@@H](Cc1ccccc1)C(=O)N[C@@H](CCCCN)C(=O)N[C@@H](CCCNC(=N)N)C(=O)N[C@@H](CCCNC(=N)N)C(=O)O)[C@@H](C)CC)[C@@H](C)O [S. mitis-CSP-2-E1Af10n11] (H-AIRQTHNIF[dF][dN]FFKRR-OH; N-terminus and C-terminus assumed) | – | – | – | IC50 (S. mitis ComD-2 receptor [2]): > 1000 nM
EIRQTHNIAFNFFKRR [S. mitis-CSP-2-F9A] | > 1000 nM | – | – | –
EMRQTHFFFFNFFKRR [S. mitis-CSP-2-I2MN7FI8F] | > 1000 nM | 63.6 nM | 13.5 nM | –
CC[C@H](C)[C@H](NC(=O)[C@@H](N)CCC(=O)O)C(=O)N[C@@H](CCCNC(=N)N)C(=O)N[C@@H](CCC(N)=O)C(=O)N[C@H](C(=O)N[C@@H](Cc1c[nH]cn1)C(=O)N[C@H](CC(N)=O)C(=O)N[C@H](C(=O)N[C@@H](Cc1ccccc1)C(=O)N[C@@H](Cc1ccccc1)C(=O)N[C@@H](CC(N)=O)C(=O)N[C@@H](Cc1ccccc1)C(=O)N[C@@H](Cc1ccccc1)C(=O)N[C@@H](CCCCN)C(=O)N[C@@H](CCCNC(=N)N)C(=O)N[C@@H](CCCNC(=N)N)C(=O)O)[C@@H](C)CC)[C@@H](C)O [S. mitis-CSP-2-n7] (H-EIRQTH[dN]IFFNFFKRR-OH; N-terminus and C-terminus assumed) | > 1000 nM | – | – | –
EMRLTHFIFFNFFKRR [S. mitis-CSP-2-I2MQ4LN7F] | > 1000 nM | 137 nM | 75.6 nM | –
EMRQTHIFFFNFFKRR [S. mitis-CSP-2-I2MN7II8F] | > 1000 nM | 61.6 nM | 2.67 nM | –
CC[C@H](C)[C@H](NC(=O)[C@H](CC(N)=O)NC(=O)[C@@H](Cc1c[nH]cn1)NC(=O)[C@@H](NC(=O)[C@H](CCC(N)=O)NC(=O)[C@H](CCCNC(=N)N)NC(=O)[C@@H](NC(=O)[C@@H](N)CCC(=O)O)[C@@H](C)CC)[C@@H](C)O)C(=O)N[C@@H](Cc1ccccc1)C(=O)N[C@@H](Cc1ccccc1)C(=O)N[C@@H](CC(N)=O)C(=O)N[C@@H](Cc1ccccc1)C(=O)N[C@@H](Cc1ccccc1)C(=O)N[C@@H](CCCCN)C(=O)N[C@@H](CCCNC(=N)N)C(=O)N[C@@H](CCCNC(=N)N)C(=O)O [S. mitis-CSP-2-h6] (H-EIRQT[dH]NIFFNFFKRR-OH; N-terminus and C-terminus assumed) | > 1000 nM | – | – | –
CC[C@H](C)[C@H](NC(=O)[C@H](CC(N)=O)NC(=O)[C@H](Cc1c[nH]cn1)NC(=O)[C@@H](NC(=O)[C@@H](CCC(N)=O)NC(=O)[C@H](CCCNC(=N)N)NC(=O)[C@@H](NC(=O)[C@@H](N)CCC(=O)O)[C@@H](C)CC)[C@@H](C)O)C(=O)N[C@@H](Cc1ccccc1)C(=O)N[C@@H](Cc1ccccc1)C(=O)N[C@@H](CC(N)=O)C(=O)N[C@@H](Cc1ccccc1)C(=O)N[C@@H](Cc1ccccc1)C(=O)N[C@@H](CCCCN)C(=O)N[C@@H](CCCNC(=N)N)C(=O)N[C@@H](CCCNC(=N)N)C(=O)O [S. mitis-CSP-2-q4] (H-EIR[dQ]THNIFFNFFKRR-OH; N-terminus and C-terminus assumed) | > 1000 nM | – | – | –
EMRLTHNIFFFFFKRR [S. mitis-CSP-2-I2MQ4LN11F] | > 1000 nM | 14.8 nM | 188 nM | –
EIRQTANIFFNFFKRR [S. mitis-CSP-2-H6A] | > 1000 nM | – | – | –
EMRLTHNFFFNFFKRR [S. mitis-CSP-2-I2MQ4LI8F, S. mitis-CSP-2-based pneumococcal QS modulator from previous study] | – | 42 nM | 30 nM | –
AIRQTHNIFFNAFKRR [S. mitis-CSP-2-E1AF12A] | – | – | – | IC50 (S. mitis ComD-2 receptor [2]): > 1000 nM
EMRQTHNFFFNFFKRR [S. mitis-CSP-2-I2MI8F, S. mitis-CSP-2-based pneumococcal QS modulator from previous study] | – | 151 nM | 83.2 nM | –
EMRQTHNFFFFFFKRR [S. mitis-CSP-2-I2MI8FN11F, S. mitis-CSP-2-based pneumococcal QS modulator from previous study] | – | 6.95 nM | 26.2 nM | –
IRQTHNIFFNFFKRR [S. mitis-CSP-2-des-E1] | – | – | – | % ComD activation, primary antagonism screening (S. mitis ComD-2 receptor [2]; 10 μM peptide against 1 µM S. mitis-CSP-2 (100%), DMSO 0%): less than 50%; IC50 (S. mitis ComD-2 receptor [2]): > 1000 nM
AIRQTHNIFFNFAKRR [S. mitis-CSP-2-E1AF13A] | – | – | – | IC50 (S. mitis ComD-2 receptor [2]): > 1000 nM
EIRQTHNIFFNFF [S. mitis-CSP-2-des-K14R15R16, truncated analog of S. mitis-CSP-2] | – | – | – | ComD-2 activation: EC50 not determined due to the analog's low induction in primary agonism screening assay (S. mitis ComD-2 receptor [1]; initial screening at 10,000 nM peptide): complete loss of activity
EMRQTHFIFFNLFKRR [S. mitis-CSP-2-I2MN7FF12L] | > 1000 nM | 72.8 nM | 112 nM | –

Source: PMC10714334, “Developing multispecies quorum-sensing modulators based on the Streptococcus mitis competence-stimulating peptide” (The Journal of Biological Chemistry, 2023)
